The subject of the series is rodent carcinogenicity bioassays, tumor incidence. Put plainly: CCRIS carcinogenicity studies. In short, it runs like this:
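Archive of carcinogenicity, mutagenicity, tumor promotion and tumor inhibition results drawn from journals, NCI reports and other sources, expert-reviewed; covers 1985-2011 and is no longer updated.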

Active and inactive are the calls of the source. No rule for the calls is given here.

Regarding `C=CC#N`, the carcinogen call was “active; positive” (Species: HUMAN, Route: INHALATION, Tumor Site: Type of Lesion: LUNG, COLON); “active; positive” (Species: MOUSE, Strain/Sex: B6C3F1/FEMALE, Route: GAVAGE, Dose: 0, 2.5, 10, 20 MG/KG 5D/WK FOR 104-105 WK (STUDY DURATION: 104-105 WK), Dose: 0, 2.5, 10, 20 MG/KG 5D/WK FOR 104-105 WK (STUDY DURATION: 104-105 WK), Tumor Site: Type of Lesion: FORESTOMACH: SQUAMOUS CELL PAPILLOMA, SQUAMOUS CELL CARCINOMA, SQUAMOUS CELL PAPILLOMA OR CARCINOMA, HARDERIAN GLAND: AD); “equivocal” (Species: MOUSE, Strain/Sex: B6C3F1/FEMALE, Route: GAVAGE, Dose: 0, 2.5, 10, 20 MG/KG 5D/WK FOR 104-105 WK (STUDY DURATION: 104-105 WK), Dose: 0, 2.5, 10, 20 MG/KG 5D/WK FOR 104-105 WK (STUDY DURATION: 104-105 WK), Tumor Site: Type of Lesion: OVARY: MALIGNANT GRANULOSA CELL TUMOR, LUNG (ALVEOLAR/BRONCHIOLAR): ADENOMA OR CARCINOMA); “active; positive” (Species: MOUSE, Strain/Sex: B6C3F1/FEMALE, Route: GAVAGE, Dose: 0, 2.5, 10, 20 MG/KG/D 5 D/WK FOR 105 WK (STUDY DURATION: 105 WK), Dose: 0, 2.5, 10, 20 MG/KG/D 5 D/WK FOR 105 WK (STUDY DURATION: 105 WK), Tumor Site: Type of Lesion: FORESTOMACH: SQUAMOUS CELL PAPILLOMA, SQUAMOUS CELL CARCINOMA, SQUAMOUS CELL PAPILLOMA OR CARCINOMA, EPITHELIAL HYPERPLA); “active; positive” (Species: MOUSE, Strain/Sex: B6C3F1/MALE, Route: GAVAGE, Dose: 0, 2.5, 10, 20 MG/KG 5D/WK FOR 104-105 WK (STUDY DURATION: 104-105 WK), Dose: 0, 2.5, 10, 20 MG/KG 5D/WK FOR 104-105 WK (STUDY DURATION: 104-105 WK), Tumor Site: Type of Lesion: FORESTOMACH: SQUAMOUS CELL PAPILLOMA, SQUAMOUS CELL CARCINOMA, SQUAMOUS CELL PAPILLOMA OR CARCINOMA, HARDERIAN GLAND: AD); “active; positive” (Species: MOUSE, Strain/Sex: B6C3F1/MALE, Route: GAVAGE, Dose: 0, 2.5, 10, 20 MG/KG/D 5 D/WK FOR 105 WK (STUDY DURATION: 105 WK), Dose: 0, 2.5, 10, 20 MG/KG/D 5 D/WK FOR 105 WK (STUDY DURATION: 105 WK), Tumor Site: Type of Lesion: FORESTOMACH: SQUAMOUS CELL PAPILLOMA, SQUAMOUS CELL CARCINOMA, SQUAMOUS CELL PAPILLOMA OR CARCINOMA, EPITHELIAL HYPERPLA). The carcinogen call (Species: RAT, Route: INHALATION, Tumor Site: Type of Lesion: MAMMARY GLAND, NERVOUS SYSTEM (CENTRAL), EAR (ZYMBAL GLAND), Tumor Site: Type of Lesion: MAMMARY GLAND, NERVOUS SYSTEM (CENTRAL), EAR (ZYMBAL GLAND)) is “active; positive”; the carcinogen call (Species: RAT, Route: ORAL, Tumor Site: Type of Lesion: FORESTOMACH, STOMACH, NERVOUS SYSTEM (CENTRAL), EAR (ZYMBAL GLAND), Tumor Site: Type of Lesion: FORESTOMACH, STOMACH, NERVOUS SYSTEM (CENTRAL), EAR (ZYMBAL GLAND)) is “active; positive”; the carcinogen call (Species: RAT, Strain/Sex: F344/FEMALE, Route: ORAL, Dose: 0, 1, 3, 10, 30, 100 PPM IN DRINKING WATER FOR LIFETIME (STUDY DURATION: 26 MO), Dose: 0, 1, 3, 10, 30, 100 PPM IN DRINKING WATER FOR LIFETIME (STUDY DURATION: 26 MO), Tumor Site: Type of Lesion: BRAIN: ASTROCYTOMA, ZYMBAL'S GLAND: SQUAMOUS CELL PAPILLOMA, ADENOMA/CARCINOMA, MAMMARY GLAND: FIBROADENOMA, FORESTOMAC, Tumor Site: Type of Lesion: BRAIN: ASTROCYTOMA, ZYMBAL'S GLAND: SQUAMOUS CELL PAPILLOMA, ADENOMA/CARCINOMA, MAMMARY GLAND: FIBROADENOMA, FORESTOMAC) was “active; positive”; the carcinogen call (Species: RAT, Strain/Sex: F344/MALE, Route: ORAL, Dose: 0, 1, 3, 10, 30, 100 PPM IN DRINKING WATER FOR LIFETIME (STUDY DURATION: 26 MO), Dose: 0, 1, 3, 10, 30, 100 PPM IN DRINKING WATER FOR LIFETIME (STUDY DURATION: 26 MO), Tumor Site: Type of Lesion: BRAIN: ASTROCYTOMA, SPINAL CORD: ASTROCYTOMA, ZYMBAL'S GLAND: SQUAMOUS CELL PAPILLOMA, ADENOMA/CARCINOMA, FORESTOMACH: S, Tumor Site: Type of Lesion: BRAIN: ASTROCYTOMA, SPINAL CORD: ASTROCYTOMA, ZYMBAL'S GLAND: SQUAMOUS CELL PAPILLOMA, ADENOMA/CARCINOMA, FORESTOMACH: S) is “active; positive”; the carcinogen call (Species: RAT, Strain/Sex: SPRAGUE-DAWLEY/FEMALE, Route: GAVAGE, Dose: 0, 0.1, 10 MG/KG/D 7D/WK FOR 20 MO (STUDY DURATION: 20 MO), Dose: 0, 0.1, 10 MG/KG/D 7D/WK FOR 20 MO (STUDY DURATION: 20 MO), Tumor Site: Type of Lesion: BRAIN: ASTROCYTOMA, ZYMBAL'S GLAND/EAR CANAL: CARCINOMA, FORESTOMACH: SQUAMOUS CELL PAPILLOMA/PAPILLOMA, SQUAMOUS CELL C, Tumor Site: Type of Lesion: BRAIN: ASTROCYTOMA, ZYMBAL'S GLAND/EAR CANAL: CARCINOMA, FORESTOMACH: SQUAMOUS CELL PAPILLOMA/PAPILLOMA, SQUAMOUS CELL C) is “active; positive”; the carcinogen call (Species: RAT, Strain/Sex: SPRAGUE-DAWLEY/FEMALE, Route: GAVAGE, Dose: 0, 5 MG/KG BW IN OLIVE OIL 3/WK FOR 52 WK (STUDY DURATION: LIFETIME), Tumor Site: Type of Lesion: [BRAIN WAS ONLY SITE EVALUATED]) was “inactive; negative”.

Values taken from PubChem BioAssay AID1259411 (Chemical Carcinogenesis Research Information System (CCRIS), 2018).
